{"source": "patent EP0658109B1", "about": "“METALLO PORPHYRIN COMPOSITIONS” (priority 1992, dated 1994)", "key": {"[1]": {"assay": "MTT cell viability assay (cytotoxicity)", "assay_type": "cell-based, monkey", "details": "monkey, cytotoxicity towards COS A6 cells cultured in the absence of FCS, read-out: LD50 (the source's name)", "excerpt": "(§1) Ex vivo Assay of HIV-1 Polyprotein Processing. COS A6 cells were the result of stable integration of the vector HIV-gpt by transfection of COS-7 cells. This SV40-based vector consists of the HIV-1 HXB2 strain proviral genome where the gp160 sequences were replaced by the […] (gpt) gene. Following transfection, the cells were placed under selection for gpt expression by adding mycophenolic acid to the media. Surviving cells were later cloned and assayed for expression of gag p24 protein by ELISA and Western blots of culture supernatants and whole cell extracts. The cloned COS A6 cell line was maintained in DME H21 supplemented with 10% dialyzed and refiltered fetal calf serum (FCS), antibiotics (100 U/ml penicillin G, 100 µg/ml streptomycin sulfate), hypoxanthine (14 µg/ml), xanthine (250 µg/ml), and mycophenolic acid (25 µg/ml), at 37°C and 5% CO2.\n(§2) MTT Cell Viability Assay. Cell survival was assessed by a quantitative colorimetric assay. The tetrazolium salt 3-(4,5-dimethylthiazol-2-yl)2,5-diphenyltetrazolium bromide (MTT) is cleaved by dehydrogenases in active mitochondria of living cells to yield a change in color from yellow to purple. To obtain the LD50 values for each compound, the concentration was determined at which the absorbance at 550-570 nm was half of that for the untreated cells. Compounds were tested in duplicate, in serial dilutions generally ranging from 10-250 µM concentrations in the presence of 0-0.1% DMSO. MTT assays were carried out in both the presence and absence of 10% FCS.\n(§3) Cytotoxicity of compounds (LD50) and their ability to inhibit capsid protein processing ex vivo during 4 hour incubations (IC50) were studied. A plasmid which encodes the HIV-1 proviral genome, with the exception of the […] envelope protein, was stably introduced into the monkey cell line COS 7. Cloned progeny, COS A6 cells, constitutively release viral capsids into the media. Inhibition of polyprotein processing was determined by measuring the amount of p24 present in the viral capsid samples with an ELISA assay. The decrease in the amount of detectable p24 antigen correlated with a specific inhibition of HIV PR activity, judged by the accumulation of capsid precursor in conjunction with a disappearance of the p24 mature protein band in Western blots. The MTT stain assay was used to obtain LD50 values for all the compounds tested."}, "porcine pepsin": {"biological_target": "porcine pepsin (Sus scrofa, UniProt P00791)", "sequence (P00791 60-385)": "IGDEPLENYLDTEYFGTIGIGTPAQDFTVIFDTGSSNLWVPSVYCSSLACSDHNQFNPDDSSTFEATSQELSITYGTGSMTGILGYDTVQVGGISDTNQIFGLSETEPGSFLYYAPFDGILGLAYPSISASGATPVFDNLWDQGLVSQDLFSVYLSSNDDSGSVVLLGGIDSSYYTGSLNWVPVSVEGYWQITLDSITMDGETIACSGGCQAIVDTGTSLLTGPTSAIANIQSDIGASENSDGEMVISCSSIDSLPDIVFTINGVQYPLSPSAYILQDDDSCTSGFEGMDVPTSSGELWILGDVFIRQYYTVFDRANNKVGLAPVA", "assay": "Pepsin inhibition, standard conditions", "assay_type": "biochemical", "details": "absence of DMSO", "description": "(§4) Enzyme Assays. HIV-1, HIV-2, and SIV PRs were assayed against the decapeptide corresponding to the HIV-1 PR C-terminal autoprocessing site, by means of a discontinuous HPLC assay. Recombinant human renin and porcine pepsin were obtained and assayed using standard conditions. Bovine cathepsin D and its chromogenic substrate were purchased from Sigma. The enzyme was assayed by standard methods.\n(§5) Stock solutions of the porphyrin derivatives (1 µ M-10mM) in 100% DMSO were used in IC50 determinations. Since many of the derivatives were insoluble in buffer alone, including the free acid forms of the carborane compounds, DMSO was used to increase solubility and allow a comparison of the binding affinity. Compounds were added to buffer solutions containing additional DMSO to give a final concentration of 5%. Control reactions contained 5% DMSO only. Enzymes were preincubated with inhibitor for 1 minute at 25°C, followed by addition of substrate to initiate the reaction. As earlier noted, assays were also carried out in the absence of DMSO, when possible. Dipotassium salts of several of the inhibitors were soluble in aqueous solution and were assayed in the absence of DMSO for K1 and IC50 determinations."}, "COS A6 cells": {"system": "COS A6 cells", "assay": "MTT cell viability assay (cytotoxicity)", "assay_type": "cell-based, monkey", "details": "cytotoxicity towards COS A6 cells cultured in the absence of FCS, read-out: LD50 (the source's name)", "excerpt": "as §1, §2, §3"}, "SIV protease (SIV PR)": {"biological_target": "T1, SIV protease (SIV PR) (Simian immunodeficiency virus, UniProt P05896)", "T1 construct": "SIV protease (SIV PR) were expressed and purified from strain X90; made in house; host or cells: strain X90 (E. coli by own knowledge)", "T1 sequence (P05896 501-596)": "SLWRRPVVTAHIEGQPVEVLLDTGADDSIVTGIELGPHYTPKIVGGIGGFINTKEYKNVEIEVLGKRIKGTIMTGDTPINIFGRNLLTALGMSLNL", "assay": "SIV protease inhibition, discontinuous HPLC assay of decapeptide cleavage", "assay_type": "biochemical", "details": "absence of DMSO", "description": "(§6) Recombinant Protein Preparation. Recombinant HIV-1 protease (HIV-1 PR) was expressed and purified from E. coli strain D1210 using the pSOD/PR179 vector. Recombinant HIV-2 protease (HIV-2 PR) and SIV protease (SIV PR) were expressed and purified from strain X90 using pTacTac vectors.\nas §4\nas §5, with “Dipotassium salts of several of the inhibitors were soluble in aqueous solution and were assayed in the absence of DMSO for K1 and IC50 determinations.” left out"}, "[2]": {"biological_target": "T2, Recombinant HIV-2 protease (HIV-2 PR) (Human immunodeficiency virus type 2 subtype A, UniProt P04584)", "T2 construct": "Recombinant HIV-2 protease (HIV-2 PR) and SIV protease (SIV PR) were expressed and purified; made in house; host or cells: strain X90 (E. coli by own knowledge)", "T2 sequence (P04584 514-612 limits assumed)": "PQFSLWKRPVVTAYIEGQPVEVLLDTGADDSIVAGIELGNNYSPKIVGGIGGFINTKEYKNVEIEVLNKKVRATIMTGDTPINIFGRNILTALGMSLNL", "assay": "HIV-2 protease inhibition, discontinuous HPLC assay of decapeptide cleavage", "assay_type": "biochemical", "description": "as §6, §4, §5"}, "Recombinant human renin": {"biological_target": "T3, Recombinant human renin (Homo sapiens, UniProt P00797)", "T3 sequence (P00797 67-406)": "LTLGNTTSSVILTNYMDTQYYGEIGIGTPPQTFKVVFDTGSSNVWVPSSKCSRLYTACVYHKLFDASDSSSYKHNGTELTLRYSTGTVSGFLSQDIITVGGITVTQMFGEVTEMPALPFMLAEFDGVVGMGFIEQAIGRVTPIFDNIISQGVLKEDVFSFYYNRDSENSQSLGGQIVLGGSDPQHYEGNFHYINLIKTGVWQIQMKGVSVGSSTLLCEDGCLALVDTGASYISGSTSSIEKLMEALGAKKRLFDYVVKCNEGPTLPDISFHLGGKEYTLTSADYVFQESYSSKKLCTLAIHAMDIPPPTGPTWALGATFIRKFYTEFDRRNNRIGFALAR", "assay": "Renin inhibition, standard conditions", "assay_type": "biochemical", "details": "absence of DMSO", "description": "as §4, §5"}, "[3]": {"biological_target": "T4, Recombinant HIV-1 protease (HIV-1 PR) (Human immunodeficiency virus type 1 group M subtype B, UniProt P03369)", "T4 construct": "Recombinant HIV-1 protease (HIV-1 PR) was expressed and purified; made in house; host or cells: E. coli strain D1210", "assay_type": "biochemical", "description": "as §6, §4\nStock solutions of the porphyrin derivatives (1 µ M-10mM) in 100% DMSO were used in IC50 determinations. […] Control reactions contained 5% DMSO only. Enzymes were preincubated with inhibitor for 1 minute at 25°C, followed by addition of substrate to initiate the reaction. As earlier noted, assays were also carried out in the absence of DMSO, when possible.\nFigure 1 is a Dixon plot of inventive embodiment 5 (which is a representative example of the other embodiments) in inhibition of HIV-1 protease, where purified HIV-1 protease (6 x 10^-1 mg/ml) was incubated with the inventive inhibitor in 50 mM sodium acetate buffer, pH 5.5, containing 1 mM dithiothreitol, 1 mM EDTA, and 1 M NaCl. […] The assay solutions were incubated for 30-45 minutes at 37° and enzyme activity was determined by quantitation of the hydrolysis products on HPLC."}, "mice": {"system": "mice", "assay": "Tolerance in mice", "assay_type": "in vivo", "details": "doses as high as 200 mg/kg"}, "Bovine cathepsin D": {"biological_target": "T5, Bovine cathepsin D (Bos taurus, UniProt P80209)", "T5 construct": "purchased Sigma", "T5 sequence (P80209 45-390)": "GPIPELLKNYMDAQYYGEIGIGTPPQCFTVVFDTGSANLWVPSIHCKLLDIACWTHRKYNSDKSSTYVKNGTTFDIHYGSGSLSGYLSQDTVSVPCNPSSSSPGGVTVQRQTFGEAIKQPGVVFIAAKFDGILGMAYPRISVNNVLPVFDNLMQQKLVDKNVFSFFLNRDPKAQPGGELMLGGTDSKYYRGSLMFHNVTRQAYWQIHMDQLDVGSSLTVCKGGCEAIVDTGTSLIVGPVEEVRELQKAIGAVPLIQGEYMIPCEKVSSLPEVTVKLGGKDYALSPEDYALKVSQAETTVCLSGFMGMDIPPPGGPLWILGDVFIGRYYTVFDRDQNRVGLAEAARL", "assay": "Cathepsin D inhibition, chromogenic substrate", "assay_type": "biochemical", "details": "absence of DMSO", "description": "as §4, §5"}, "C6 glioma": {"system": "C6 glioma", "assay": "Colony survival (cytotoxicity)", "assay_type": "cell-based", "details": "in the presence of FCS, read-out: LD50 (the source's name)"}, "V79 CHO cells": {"system": "V79 CHO cells", "assay": "Colony survival (cytotoxicity)", "assay_type": "cell-based", "details": "in the presence of FCS, read-out: LD50 (the source's name)"}}, "note": "Where two headings read alike, the source gives them in different places.", "data": [{"molecule": "CC1=C(C(COC(=O)c2ccc(N(C)C)cc2)OC(=O)c2ccc(N(C)C)cc2)c2cc3nc(cc4[nH]c(cc5[nH]c(cc1n2)c(C)c5CCC(=O)O)c(CCC(=O)O)c4C)C(C(COC(=O)c1ccc(N(C)C)cc1)OC(=O)c1ccc(N(C)C)cc1)=C3C", "note": "(centres unmarked) [Comparative Embodiment 9]", "values": [{"measurement": "CC50", "setting": "[1]", "value": "> 250", "unit": "µM"}]}, {"molecule": "CC1=C(C(COC(=O)c2ccccc2)OC(=O)c2ccccc2)c2cc3nc(cc4[nH]c(cc5[nH]c(cc1n2)c(C)c5CCC(=O)O)c(CCC(=O)O)c4C)C(C(COC(=O)c1ccccc1)OC(=O)c1ccccc1)=C3C", "note": "(centres unmarked) [Comparative Embodiment 10]", "values": [{"measurement": "CC50", "setting": "[1]", "value": 250, "unit": "µM"}]}, {"molecule": "CC1=C(C(COC(=O)c2ccc3ccccc3c2)OC(=O)c2ccc3ccccc3c2)c2cc3nc(cc4[nH]c(cc5[nH]c(cc1n2)c(C)c5CCC(=O)O)c(CCC(=O)O)c4C)C(C(COC(=O)c1ccc2ccccc2c1)OC(=O)c1ccc2ccccc2c1)=C3C", "note": "(centres unmarked) [Comparative Embodiment 11]", "values": [{"measurement": "CC50", "setting": "[1]", "value": 250, "unit": "µM"}]}, {"molecule": "CC1=C(C(O)CO)c2cc3nc(cc4[nH]c(cc5[nH]c(cc1n2)c(C)c5CCC(=O)O)c(CCC(=O)O)c4C)C(C(O)CO)=C3C", "note": "(centres unmarked) [Comparative Embodiment 12]", "values": [{"measurement": "CC50", "setting": "[1]", "value": 250, "unit": "µM"}]}, {"molecule": "tetra-carborane carboxylate ester of 2,4-Di(α,β-dihydroxyethyl)deuteroporphyrin (IX) [Inventive Embodiment 1]", "values": [{"measurement": "IC50", "setting": "porcine pepsin", "value": 4, "unit": "µM"}, {"measurement": "CC50", "setting": "COS A6 cells", "value": 25, "unit": "µM"}, {"measurement": "IC50", "setting": "SIV protease (SIV PR)", "value": 0.25, "unit": "µM"}, {"measurement": "IC50", "setting": "[2]; absence of DMSO, dipotassium salts in aqueous solution, read-out: IC50 HIV-2 PR", "value": 0.23, "unit": "µM"}, {"measurement": "IC50", "setting": "[2]; in the presence of 5% DMSO, read-out: IC50 in vitro HIV-2", "value": 0.7, "unit": "µM"}, {"measurement": "IC50", "setting": "[2]; matches the series without DMSO, read-out: IC50 HIV-2 protease", "value": 0.23, "unit": "µM"}, {"measurement": "IC50", "setting": "Recombinant human renin", "value": 3, "unit": "µM"}, {"measurement": "IC50", "setting": "[3]; absence of DMSO, dipotassium salts in aqueous solution, read-out: IC50 HIV-1 PR", "value": 0.05, "unit": "µM"}, {"measurement": "fold more effective for HIV-1 PR than for HIV-2 and SIV PRs", "setting": "[3]; from Table 4, absence of DMSO", "value": "approximately 5 fold"}, {"measurement": "fold more inhibitory for HIV-1 PR compared to cellular aspartyl proteases", "setting": "[3]; from Table 4, absence of DMSO, listed as Inventive embodiment 1", "value": "at least 60 fold"}, {"measurement": "fold more inhibitory for HIV-1 PR compared to cellular aspartyl proteases", "setting": "[3]; from Table 4, absence of DMSO, listed as inventive embodiment 1", "value": "at least a sixty-fold"}, {"measurement": "IC50", "setting": "[3]; in the presence of 5% DMSO, read-out: IC50 in vitro HIV-1", "value": 0.185, "unit": "µM"}, {"measurement": "decrease of inhibition of HIV-1 PR by fetal calf serum", "setting": "[3]; incubation with 0.1% FCS, 50 nM inhibitor", "value": "more than 50%"}, {"measurement": "IC50", "setting": "[3]; matches the series without DMSO, read-out: IC50 HIV-1 protease", "value": 0.05, "unit": "µM"}, {"measurement": "tolerance in mice (morbidity or mortality)", "setting": "mice", "value": "no apparent signs of morbidity or mortality"}, {"measurement": "IC50", "setting": "Bovine cathepsin D", "value": 10, "unit": "µM"}, {"measurement": "concentrations readily prepared in water (water solubility)", "value": "100 to 200", "unit": "mg/mL"}, {"measurement": "CC50", "setting": "C6 glioma", "value": "100 to 125", "unit": "µM"}, {"measurement": "CC50", "setting": "V79 CHO cells", "value": "≥ 150", "unit": "µM"}]}]}
